B1: GDNF: glial-derived neurotrophic factor (protein, UniProt P39905 78-211, looked up)
Glial cell line-derived …: SPDKQMAVLPRRERNRQAAAANPENSRGKGRRGQRGKNRGCVLTAIHLNVTDLGLGYETKEELIFRYCSGSCDAAETTYDKILKNLSRNRRLVSDKVGQACCRPIAFDDDLSFLDDNLVYHILRKHSAKRCGCI

Assays:
[1] = test system: rat primary cortical neurones; test: Pre-treatment against glutamate-induced damage (LDH) in cortical neurones; assay type: cell-based; settings: for Neuronal survival (% of control): 24 h before and 24 h after glutamate 100 μM 10 min; for Toxicity at the plateau of activity: nanomolar concentration, cortical neurones in vitro
Procedure: Exposure of rat primary cortical neurones to glutamate increases lactate dehydrogenase (LDH) activity measured 24 h after glutamate exposure, indicating significant neuronal damage. Rat cortical neurones were cultured by modification of a method previously described (Singer, et al., Neuroscience Letters, 1996, 212, pp. 13-16). On day 10 of culture, the medium was changed to a serum-free defined medium. On day 12, the cultures were washed and placed for 24 h in fresh medium containing test compound or vehicle (DMSO, 0.25%). On day 13 neurones were exposed to glutamate (100 μM; 10 min) at 37° C. The cultures were then washed with, and placed in, fresh medium supplemented with test compound or vehicle for a further 24 h before LDH was measured. Neuronal damage was assessed by measuring LDH activity in the media at 24 h after glutamate exposure.

[2] = test system: Rat dopaminergic neurones; test: Pre-treatment against MPP+-induced loss of dopaminergic neurones; assay type: cell-based; settings: 30 nM, 24 h before and during MPP+ 2 μM 48 h
Procedure: Rat dopaminergic neurones were cultured as previously described (Schinelli et al., Journal of Neurochemistry, 1988, 50, pp. 1900-1907). On day 5, the cultures were washed and placed in fresh medium containing test compounds (30 nM), vehicle (DMSO, 0.25%) or a combination of BDNF (1.85 nM) and GDNF (0.17 nM) for 24 h.
Exposure of rat primary dopaminergic neurones to MPP^+ (2 μM, 24 h) causes a significant decrease in the number of dopaminergic neurones compared to the control. On day 6, MPP^+ (2 μM) was added to the cultures in the presence of test compounds, vehicle or a combination of BDNF and GDNF for a further 48 h. MPP^+ induces neuronal death, via inhibition of complex I in the mitochondria and consequent ATP depletion, resulting in the production of free radicals and induction of apoptosis. After the incubation period, the cultures were fixed with paraformaldehyde in PBS (4%). After fixation, the neurones were permeabilised with Triton ×100 (0.05%) for 30 min. The neurones were then incubated with anti-tyrosine hydroxylase (TH) at 37° C. for 2 h. The neurones were washed three times with PBS, and then incubated with goat anti mouse/Cy3 for 2 h at 37° C. The neurones were mounted and examined with the fluorescence microscopy.

[3] = test system: Rat cortical neurones; test: Neuritogenesis in cortical neurones; assay type: cell-based; settings: 3 nM, 24 h; for Neurones displaying neurites (%): control 39.35 ± 2.06
Procedure: Rat cortical neurones were cultured by modification of a previously described method (Singer, et al., Neuroscience Letters, 1996, 212, pp. 13-16). Cells were cultured with sarsasapogenin, smilagenin, vehicle (DMSO 0.25%), GDNF, BDNF or NGF for 24 h. For each group, 15 pictures showing neurones displaying neurites were selected at random in each field, and for each neurone the longest neurite was measured. The neurite number was measured by counting the number of neurones displaying neurites, the number of neurones not displaying neurites and the number of total neurones in each field. Six fields per well were examined.
The results are shown in Table 15 below, expressed as the number of neurones with neurites per field as a percentage of the total number of neurones per field.

[4] = test system: Rat sensory neurones; test: Neuronal survival in sensory neurones; assay type: cell-based, Wistar rat; settings: 0.2 nM, 2 days
Procedure: Rat sensory neurones were obtained from Wistar rat embryos on the 15th day of gestation. Cells were cultured at 37° C. in 5% CO2/95% air atmosphere. Following 2 days of culturing with sarsasapogenin, smilagenin, vehicle (DMSO, 0.25%) or NGF, sensory neurones were rinsed twice with PBS and fixed in paraformaldehyde (4%) in PBS for 30 min at 4° C. Cells were permeabilised with Triton X-100 (0.1%) and non-specific sites were saturated using foetal bovine serum. Prior to staining, cells were incubated for 2 h at room temperature with a mixture of primary antibodies: anti-neurofilament 68 and 200 in PBS containing foetal bovine serum 5%. Prior to washing, slides were demounted and the cells were washed twice with PBS for 5 min, placed in a dark room for 1 h and incubated with a secondary antibody: anti-mouse coupled with cyanine 3 (Cy3; 1/1600) and an anti-rabbit coupled with fluoroisothiocyanate (FITC; 1/200) in PBS containing foetal bovine serum (5%). Slides were washed twice with PBS for 5 min and mounted on coverslips using Mowiol, an antioxidative solution (9% w/v) in glycerol (22%) buffered with Tris/HCl ([…]; pH 8.5). Slides were left overnight at room temperature to harden and stored in light protected conditions. Slides were viewed using a DAPI/FITC/Cy3 triple filter microscope with a ×20 objective. A series of photographs per well were taken at random using a digital camera.

[5] = test system: pmn mice; settings: literature (Sagot et al. 1996); cited from earlier work

Molecule	Neuronal survival (% of control) ([1]; 3 nM)	Neuronal survival (% of control) ([1]; 10 nM)	Neuronal survival (% of control) ([1]; 30 nM)	Neuronal survival (% of control) ([1]; 100 nM)	Neuronal survival (% of control) ([1]; 300 nM)	Toxicity at the plateau of activity [1]	Neuronal survival (% of control) [2]	Neuronal survival (% of control) ([1]; 1 nM)	Neurite length (% of control) [3]	Neurones displaying neurites (%) [3]	Neuronal survival (% of control) [4]	Motor neurone survival and disease course in pmn mice [5]
C[C@@H]1CC[C@@]2(OC1)O[C@H]1C[C@H]3[C@@H]4CC[C@@H]5C[C@H](O)CC[C@]5(C)[C@H]4CC[C@]3(C)[C@H]1[C@@H]2C [epismilagenin]	82.49 ± 3.93 % of control	78.57 ± 2.15 % of control	81.76 ± 2.09 % of control	78.39 ± 1.75 % of control	78.86 ± 1.80 % of control	without causing any toxicity	115.12 ± 4.73 % of control					
C[C@H]1CC[C@@]2(OC1)O[C@H]1C[C@H]3[C@@H]4CC[C@@H]5C[C@H](O)CC[C@]5(C)[C@H]4CC[C@]3(C)[C@H]1[C@@H]2C [episarsasapogenin]	80.39 ± 5.18 % of control	83.80 ± 4.18 % of control	87.17 ± 2.51 % of control	86.42 ± 2.95 % of control		without causing any toxicity	95.01 ± 4.52 % of control	84.79 ± 2.40 % of control				
NGF: nerve growth factor									145.73 ± 5.13 % of control	52.59 ± 2.43 %	151.50 ± 7.19 % of control	
B1									125.30 ± 4.18 % of control	55.72 ± 1.98 %		improved the motor neurone survival but did not slow down the disease

— patent publication US20120034193A1, “TREATMENT OF NEUROTROPHIC FACTOR MEDIATED DISORDERS” (priority 2009, published 2012)
